Assay results taken from patent US12022831B2, “Synergistic weed control from applications of aminopyralid and clopyralid” (Dow AgroSciences LLC, priority 2012, dated 2024).
Structures can show the parent of a compound that is named as a salt.

Test system: honey mesquite (Prosopis glandulosa), weed bayer PRCJG
Assay: Field trial, post-emergence foliar application, synergistic weed control (canopy control and mortality ratings, Colby's equation)
Assay type: in vivo
Description: In some embodiments, the damage or injury to the undesired vegetation caused by the compositions and methods disclosed herein is evaluated using a scale from 0% to 100%, when compared with the untreated control vegetation, wherein 0% indicates no damage to the undesired vegetation and 100% indicates complete destruction of the undesired vegetation.
X=effect in percent using (a) aminopyralid or an agriculturally acceptable salt or ester thereof at an application rate a;
Y=effect in percent using (b) clopyralid or an agriculturally acceptable salt or ester thereof at an application rate b;
E=expected effect (in %) of (a)+(b) at application rates a and b.
In Colby's equation, the value E corresponds to the effect (plant damage or injury) that is to be expected if the activity of the individual compounds is additive. If the observed effect is higher than the value E calculated according to the Colby equation, then a synergistic effect is present according to the Colby equation.
Field trials were conducted with applications made to established grassland with naturally occurring weed populations. The target plants were treated with postemergence foliar applications when they reached two to five feet tall. All treatments were applied using a nonrandomized trial design, with three replications per treatment.
[…] Spray solutions were prepared using an appropriate amount of dilution to form a 2 L aqueous spray solution with active ingredients in single and two way combinations. […] The treated plants were honey mesquite (Prosopis glandulosa). The treated plots and control plots were rated blind at various intervals after application. Ratings were based on a scale of 0-100%, wherein 0% indicates no damage to the canopy of the undesired vegetation and 100% indicates complete destruction of the canopy of undesired vegetation. Dead and live plants were counted and the mortality was calculated as a % of the total number of undesired plants per plot.
Colby's equation was used to determine the herbicidal effects expected from the mixtures, as described above. […] The herbicide tank mix combinations tested, application rates and ratios employed, plant species tested, and results are given below.

| Structure (SMILES) | Mean % weed mortality; Evaluation: % Canopy Control (Aminopyralid TIPA Salt alone 280 gae/ha, 81 days after treatment) | Mean % weed mortality; Evaluation: % Canopy Control (Aminopyralid TIPA Salt alone 280 gae/ha, 82 days after treatment) | Mean % weed mortality; Evaluation: % Mortality (Aminopyralid TIPA Salt alone 280 gae/ha, 385 days after treatment) | Mean % weed mortality; Evaluation: % Mortality (Aminopyralid TIPA Salt alone 280 gae/ha, 386 days after treatment) | Mean % weed mortality; Evaluation: % Canopy Control (Clopyralid MEA Salt alone 560 gae/ha, 82 days after treatment) | Mean % weed mortality; Evaluation: % Mortality (Clopyralid MEA Salt alone 560 gae/ha, 385 days after treatment) | Mean % weed mortality; Evaluation: % Mortality (Clopyralid MEA Salt alone 560 gae/ha, 386 days after treatment) |
| --- | --- | --- | --- | --- | --- | --- | --- |
| Nc1cc(Cl)nc(C(=O)O)c1Cl [Aminopyralid TIPA Salt, 4-amino-3,6-dichloro-2-pyridinecarboxylic acid] | 22.0% | 10.0% | 0% | 14% |  |  |  |
| O=C(O)c1nc(Cl)ccc1Cl [Clopyralid MEA Salt, 3,6-dichloro-2-pyridinecarboxylic acid] |  |  |  |  | 25.0% | 25% | 7% |
